Measured values: patent publication US20240299345A1, “GINKGOLIDE B AND ITS DERIVATIVES FOR INHIBITING AND/OR REVERSING AGING” (CHINA MEDICAL UNIVERSITY, priority 2023, published 2024)

Tests used:
[1] = test system: IL-6, IFN-γ; F4/80, CD86, CD206 cells; assay: Tissue inflammatory cytokines (real-time PCR) and bone marrow macrophage IHC in aged mice; type: in vivo, mouse
Protocol: (§1) RNAs were purified by using the TRIzol® (#15596018, Invitrogen) and chloroform method (#C7559, Sigma-Aldrich) and reversed transcribed using High-Capacity cDNA Reverse Transcription Kit (#4368814, Applied Biosystems, Foster City, CA, USA). The quantitative RT-PCR was conducted with universal probe system (Roche Life Science, Indianapolis, IN, USA) by using a QuantStudio™ 7 Flex Real-Time PCR System (Applied Biosystems) and was normalized by the expression of GAPDH.

healthy adult humans = conditions: short-term pharmacological studies; cited from earlier work
[2] = test system: H2O2-induced senescent human MSCs; assay: H2O2-induced senescence in human MSCs; type: cell-based; conditions: GB 5 mg/L
Text: C2C12 myoblast cell line (#CRL-1772TM, ATCC, Manassas, VA, USA) was expanded in high-glucose DMEM (#D7777, Sigma-Aldrich) with 10% FBS (#10270106, Gibco, Waltham, MA, USA) and 1% PSG (#10378016, Gibco). Passage 15-20 C2C12 was considered as multiple population doublings C2C12. Subconfluent C2C12 was differentiated to myotubes by myogenic induction medium, high-glucose DMEM (Sigma-Aldrich) containing 2% horse scrum (#16050122, Gibco) for 5 days. Aged bone-marrow monocytes were isolated from 20-month-old female C57BL/6 mice and then differentiated into macrophages in RPMI 1640 (#11875085, Gibco) supplemented with 10% FBS and 20 ng/ml M-CSF (#315-02, PeproTech, Cranbury, NJ, USA). Inflammatory MI macrophages were induced by 45 ng/mL IFN-γ (#485-MI-100, R&D Systems, Minneapolis, MN, USA) +100 ng/mL LPS (#L4391, Sigma-Aldrich). The indicative cells were then treated with or without GB (5 mg/L) for 48 hr. Commercial human mesenchymal stem cells (MSCs)40 were cultured in MSC maintenance medium consisting of IMDM, 10% FBS (#10270106, Gibco), 10 ng/ml bFGF (#233-FB, R&D Systems) and 1% PSG (#10378016, Gibco). To induce senescence, we treated cells at approximately 50% confluence with 200 μM H2O2 for 2 hr and then washed cells by PBS two times to remove H202. The cells were treated with GB (5 mg/L) or vehicle in fresh growth medium and subjected to the subsequent experiments at indicative time point.
Cell viability was measured by a CCK-8 kit (#ab228554, Abcam), and cell proliferation was determined by manually cell counting with hemocytometer. Senescence-associated β-galactosidase activity was determined by senescence-associated β-galactosidase staining kit (#9860, Cell Signaling Technology, Danvers, Massachusetts, USA) according to the manufacturer's instructions. Senescence-associated heterochromatin foci were visualized by DAPI staining.
as §1

[3] = test system: 20-month-old aged female C57BL/6 mice
Protocol: Animals were kept up to five per cage and were randomly assigned to control and experimental groups in all experiments. […] For the short-term experiment, 3-(young), 6-(adult) and 20-month-old (aged) female C57BL/6 mice were administered 12 mg/kg body weight GB (#G6910, Sigma-Aldrich, St. Louis, MO, USA) or vehicle daily by oral gavage for two months.
The noninvasive 31-item frailty index established by Whitehead et al. was used to evaluate frailty in mice (Whitehead, J. C. et al. A clinical frailty index in aging mice: comparisons with frailty index data in humans. J Gerontol A Biol Sci Med Sci 69, 621-632, doi:10.1093/gerona/glt136 (2014)). Whole assessments were conducted by blind investigators as possible. The scored items represent the aging-related deteriorations based on the criteria in clinical practice, consisting of the integument, musculoskeletal system, vestibulocochlear and auditory systems, ocular and nasal systems, digestive system, urogenital system, respiratory system, signs of discomfort, body weight and body surface temperature. Surface body temperature was determined by an infrared thermometer (Thermo Distance, Terraillon, Croissy-sur-seine, France), and grip strength was measured by the standard equipment described in the later section. The other subjective observations were scored by researchers. The scores 0, 0.5 and 1 indicated no sign of frailty, moderate defect and severe defect, respectively. For the body temperature, grip strength and body weight scoring, the average and standard deviation (STDEV) values were used as a baseline. A change within one STDEV is scored as a 0, a decreased change over one STDEV but lower than two STDEV was scored as a 0.5 and a change more than two STDEV was scored as a 1.

[4] = test system: 20-month-old aged female C57BL/6 mice; assay: Metabolic health in aged mice (body weight, composition, intake, lipids, IPGTT, IPITT, gene expression); type: in vivo, mouse
Protocol: For the food and water intake measurement, mice were divided into individual animal cages individually for 3 days for stabilizing the animals, and then daily consumption was recorded. The values were calculated by adjusting for body weight.
Body composition was measured by Minispec LF50 TD-NMR (Bruker, MA, USA) based on nuclear magnetic resonance methods. Briefly, mice were anesthetized for the duration of the procedure by 3% isoflurane (Zoctis, London, UK) and placed in the scanning chamber in the prone position, with the limbs and tail stretched away from the body. The analysis would be conducted by default software per manufacturer's protocol. The vascular networks […] were quantified by in vivo micro-computed tomography (U-CT, Milabs, Netherlands). Briefly, mice intravenously received 150 μL ExiTron™ nano 12000 (#130-095-698, Miltonic Biotec GmbH, Bergisch Gladbach, Germany), and then mice were anesthetized with isoflurane before being positioned on the scanning chamber. After scanning, the blood vessels were analyzed by a curved multiplanar reconstruction algorithm by using Osirix software (Bernex, Switzerland).
Mice fasted 16 hours and 2 hours before performing an IPGT test and IPIT test, respectively. IPGTT was performed by intraperitoneal injection of fasted mice with 1% body weight of sterile glucose/PBS (20% weight/volume). IPITT was performed by intraperitoneal injection of fasted mice with insulin (0.75 unit/kg body weight) (#12585014, Gibco). Blood glucose levels were measured at indicative timepoints after injection by a blood glucometer (countour plus, Ascensia Diabetes Care, Hong Kong).
Serum was collected by cardiac puncture upon sacrifice.
as §1

[5] = of 18 measurements increased by aging
[6] = aged mice, GB 2 months, p<0.0001
[7] = among the three groups (young, vehicle-aged, GB-aged)

For `CC1C(=O)OC2C(O)C34C5CC(C(C)(C)C)C36C(OC(=O)C6O)OC4(C(=O)O5)C12O` (stereo not drawn) [GB, Ginkgolide B], the “inflammatory cytokines IL-6 and IFN-γ in multiple tissues” value ([1]; GB 2 months, real-time PCR) was “downregulated”, the “CD86+ pro-inflammatory M1 macrophages” value ([1]; femur bone marrow IHC) was “decrease” and the “CD206+ anti-inflammatory M2 macrophages” value ([1]; femur bone marrow IHC) was “increased”. For the same molecule, the “aging-related accumulation of bone marrow F4/80+ cells” value ([1]; femur bone marrow IHC) was “reversed”, the “tolerability of multiple administration” value (healthy adult humans) was “well tolerated” and the cellular morphology [2] was “restored the spindle sharp from flattened and enlarged morphology”. For the same molecule, the “expression of senescence markers” value [2] was “reduced”, the proliferation [2] was “promoted” and the “senescence-associated heterochromatin foci and nucleus size” value [2] was “reduced”. For the same molecule, the “senescence-associated β-galactosidase (SA-β-Gal) staining” value ([2]; p=0.0007) was “reduced”, the “cellular viability (CCK8)” value ([2]; p=0.0026) was “promoted” and the “reduction of aging-related frailty index score” value ([3]; aged mice, GB 2 months vs vehicle-aged, p<0.0001) was 63.1%. For the same molecule, the “average frailty index score” value ([3]; aged mice, GB 2 months, mean±SD, vehicle-aged 0.43±0.13, young 0.01±0.01) was 0.16±0.05, the deterioration of frailty ([3]; mouse, in vivo) was “did not observe any deterioration” and the “number of aging-related frailty measurements modestly attenuated” value [3, 5] was 3. For the same molecule, the “number of aging-related frailty measurements reversed” value [3, 5] was 13, the “food and water consumptions” value ([4]; aged mice, GB 2 months vs vehicle, p=0.5127 and 0.9368) was “not improved” and the lean mass [4, 6] was “increase”. For the same molecule, the whole-body fat mass [4, 6] was “decrease”, the “expression of Pkm in aged skeletal muscle” value ([4]; aged mice, GB 2 months, p<0.0001, not in aged liver) was “restored” and the “expression of Glut4 in aged skeletal muscle” value ([4]; aged mice, GB 2 months, p=0.0035, not in aged liver) was “restored”. For the same molecule, the “aging-related alteration in serum total cholesterol level” value ([4]; aged mice, GB 2 months, p=0.0284) was “reversed”, the “aging-related glucose intolerance (IPGTT)” value ([4]; aged mice, GB 2 months, p=0.0322 in AUC) was “improved” and the “aging-related alteration in serum triglyceride level” value ([4]; aged mice, GB 2 months, p=0.0424) was “reversed”. For the same molecule, the body weight reduction ([4]; aged mice, post-GB administration 2 months, p=0.0123) was 6%, the fasting blood glucose [4, 7] was “no significant difference” and the “insulin sensitivity (IPITT)” value [4, 7] was “no difference”.
